Measurements published in patent US20100190843A1, “Tubulin Isotype Screening in Cancer Therapy Using Halichondrin B Analogs” (Eisai R&D Management Co., Ltd., priority 2004, published 2010).

Tests used:
[1] = system: UACC-893; test: Cell growth inhibition assay (methylene blue-based); conditions: Homo sapiens, continuous exposure 4 or 7 days, at least three experiments
Source text: (§1) The following human breast cancer cell lines were obtained from the ATCC. Cells were maintained according to ATCC-recommended culture conditions. AU565 (ATCC Catalog No. ATCC Catalog No. CRL-2351), BT-20 (ATCC Catalog No. HTB-19), MCF7 (ATCC Catalog No. HTB22), MDA-MB-231 (ATCC Catalog No. HTB-26), MDA-MB-435 (ATCC Catalog No. HTB-129), MDA-MB-468 (ATCC Catalog No. HTB-132), HCC38 (ATCC Catalog No. CRL-2314), HCC70 (ATCC Catalog No. CRL-2315), HCC1143 (ATCC Catalog No. CRL-2321), HCC1428 (ATCC Catalog No. CRL-2327), HCC1500 (ATCC Catalog No. CRL-2329), HCC1806 (ATCC Catalog No. CRL-2335), HCC1954 (ATCC Catalog No. CRL-2338), HCC2218 (ATCC Catalog No. CRL-2343), UACC-812 (ATCC Catalog No. CRL-1897), UACC-893 (ATCC Catalog No. CRL-1902), ZR-75-1 (ATCC Catalog No. CRL-1500), ZR-75-30 (ATCC Catalog No. CRL-1504).
(§2) Cultured human breast cancer cells were placed in 96-well plates and grown in the continuous presence of test compounds for 4 or 7 days. To expose the cells to test compounds for 7 days, medium was replaced with fresh medium containing compounds after 4 days of exposure and cells were incubated for 3 additional days. Cell growth was assessed using modifications (Amin et al., Cancer Res., 47:6040-6045, 1987; incorporated herein by reference) of a methylene blue-based microculture assay (Finlay et al., Anal. Biochem., 139:272-277, 1984; incorporated herein by reference).
(§3) To investigate the possible expression of PgP by the cell lines used in this study, the antiproliferative effects of paclitaxel were determined in the presence and absence of verapamil, a known inhibitor of PgP.

[2] = system: MCF-7; test: as above; conditions: Homo sapiens, MCF7, continuous exposure 4 or 7 days, at least three experiments
Source text: as §1, §2, §3

[3] = system: HCC1954; test: as above; conditions: Homo sapiens, continuous exposure 4 or 7 days, at least three experiments
Source text: as §1, §2, §3

[4] = system: HCC1143; test: as above; conditions: Homo sapiens, continuous exposure 4 or 7 days, at least three experiments
Source text: as §1, §2, §3

[5] = system: HCC1500; test: as above; conditions: Homo sapiens, continuous exposure 4 or 7 days, at least three experiments
Source text: as §1, §2, §3

[6] = system: AU565; test: as above; conditions: Homo sapiens, continuous exposure 4 or 7 days, at least three experiments
Source text: as §1, §2, §3

[7] = system: HC-2218; test: as above; conditions: Homo sapiens, continuous exposure 4 or 7 days, at least three experiments
Source text: as §1, §2, §3

[8] = system: MDA-MB-435; test: as above; conditions: Homo sapiens, continuous exposure 4 or 7 days, at least three experiments
Source text: as §1, §2, §3

[9] = system: HCC1428; test: as above; conditions: Homo sapiens, continuous exposure 4 or 7 days, at least three experiments
Source text: as §1, §2, §3

[10] = system: ZR-75-1; test: as above; conditions: Homo sapiens, continuous exposure 4 or 7 days, at least three experiments
Source text: as §1, §2, §3

[11] = system: ZR-75-30; test: as above; conditions: Homo sapiens, continuous exposure 4 or 7 days, at least three experiments
Source text: as §1, §2, §3

[12] = system: HCC70; test: as above; conditions: Homo sapiens, continuous exposure 4 or 7 days, at least three experiments
Source text: as §1, §2, §3

[13] = system: HCC38; test: as above; conditions: Homo sapiens, continuous exposure 4 or 7 days, at least three experiments
Source text: as §1, §2, §3

[14] = system: BT-20; test: as above; conditions: Homo sapiens, continuous exposure 4 or 7 days, at least three experiments
Source text: as §1, §2, §3

[15] = system: MDA-MB-231; test: as above; conditions: Homo sapiens, continuous exposure 4 or 7 days, at least three experiments
Source text: as §1, §2, §3

[16] = system: UACC-812; test: as above; conditions: Homo sapiens, continuous exposure 4 or 7 days, at least three experiments
Source text: as §1, §2, §3

[17] = system: HCC1806; test: as above; conditions: Homo sapiens, continuous exposure 4 or 7 days, at least three experiments
Source text: as §1, §2, §3

[18] = system: MDA-MB-468; test: as above; conditions: Homo sapiens, continuous exposure 4 or 7 days, at least three experiments
Source text: as §1, §2, §3

[19] = system: panel of 19 human breast cancer cell lines; test: Cell growth inhibition assay, whole panel; assay type: cell-based
Source text: as §1
as §2, with “To expose the cells to test compounds for 7 days, medium was replaced with fresh medium containing compounds after 4 days of exposure and cells were incubated for 3 additional days.” left out
Antiproliferative effects of four tubulin-binding anticancer agents were evaluated by a methylene blue-based cell growth inhibin assay in a panel of 19 human breast cancer cell lines. […]

[20] = system: HCC1419; test: Cell growth inhibition assay (methylene blue-based); conditions: Homo sapiens, continuous exposure 4 or 7 days, at least three experiments

IC50 [2]: 1.45 nM
IC50 [3]: 0.37 nM
IC50 [4]: 0.43 nM
IC50 [5]: 0.56 nM
IC50 [8]: 0.29 nM
IC50 [9]: 0.53 nM
IC50 [13]: 0.4 nM
IC50 [14]: 0.82 nM
IC50 [15]: 1.75 nM
IC50 [17]: 0.74 nM
IC50 [18]: 0.45 nM
IC50 ([19]; Homo sapiens, range over the panel of 19 cell lines): 0.29 to 1.8 nM
fold-difference between IC50's in the most sensitive and the least sensitive cell line ([19]; panel of 19 breast cancer cell lines): 6.2 fold
IC50 [20]: 1.59 nM
Structure (SMILES): C=C1C[C@@H]2CC[C@@]34C[C@H]5O[C@H]6[C@@H](O3)C3O[C@H](CCC3O[C@H]6C5O4)CC(=O)CC3[C@H](CC4O[C@@H](CCC1O2)C[C@@H](C)C4=C)O[C@H](C[C@H](O)CN)[C@@H]3OC (stereo partly drawn) [E7389]
IC50 [1]: 0.31 nM
IC50 [6]: 0.65 nM
IC50 [7]: 1.14 nM
IC50 [10]: 1.19 nM
IC50 [11]: 1.8 nM
IC50 [12]: 0.63 nM
IC50 [16]: 1.17 nM
